Test systems include KM12 colon; T-47D breast; SNB-75 CNS; BT-549 breast; OVCAR-3 ovarian; U251 CNS; DU-145 prostate; MDA-MB-231 breast; SK-OV-3 ovarian; CAKI-1 renal.
Assay in all cases: growth of human tumour cells (NCI), 48 h

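Dose response: 5 concentrations. Exposure: 48 h. Format: 96-well plates. Endpoint: linear interpolation; highest concentration if not reached. GI50 marks 50% less growth. TGI marks complete inhibition of growth.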

Regarding `CC(=O)O[C@@H]1C[C@@]2(C)[C@@H]3CC=C4[C@@H](C[C@H](O)C(=O)C4(C)C)[C@]3(C)C(=O)C[C@]2(C)[C@H]1[C@@](C)(O)C(=O)/C=C/C(C)(C)OC(C)=O`, the TGI in the assay with KM12 colon was 39.2 µM; in the assay on T-47D breast it was greater than 67.8 µM; in the assay on SNB-75 CNS, 25.3 µM; in the assay on BT-549 breast, 0.713 µM; with OVCAR-3 ovarian it was greater than 100 µM; in the assay on U251 CNS, 10.5 µM. Also, the TGI in the assay with DU-145 prostate is 34.1 µM; in the assay on MDA-MB-231 breast, greater than 21.8 µM; with SK-OV-3 ovarian, 51.5 µM; with CAKI-1 renal, 0.397 µM.

With `Cc1[nH]c(-c2cc(N)ccc2Cl)c2c1C(=O)CCCC2`, the GI50 in the assay on KM12 colon is 5.47 µM; in the assay with T-47D breast, 3.47 µM; in the assay on SNB-75 CNS, 0.183 µM; in the assay on BT-549 breast, 5.89 µM; with OVCAR-3 ovarian, 3.62 µM; in the assay on U251 CNS, 5.75 µM. For the same compound, the GI50 in the assay on DU-145 prostate was 13.1 µM; in the assay with MDA-MB-231 breast it was 3.82 µM; with SK-OV-3 ovarian, 3.56 µM; in the assay on CAKI-1 renal it was 0.702 µM. For the same compound, the TGI in the assay with KM12 colon was greater than 100 µM; in the assay with T-47D breast, greater than 100 µM; in the assay with SNB-75 CNS it was 5.2 µM; in the assay with BT-549 breast, greater than 100 µM; in the assay on OVCAR-3 ovarian it was 32.5 µM; in the assay with U251 CNS, greater than 100 µM. The TGI in the assay on DU-145 prostate is greater than 100 µM; in the assay with MDA-MB-231 breast it was greater than 100 µM; in the assay with SK-OV-3 ovarian, 36.6 µM; in the assay on CAKI-1 renal, 17.9 µM.

Take `CN1CCN(CCCCCN=c2cc3c(=O)n(CCCCCN4CCN(C)CC4)c(=O)c4c(NCCCCCN5CCN(C)CC5)cc5c(O)n(CCCCCN6CCN(C)CC6)c(=O)c2c5c4-3)CC1`: the GI50 with KM12 colon is 2.49 µM; with T-47D breast, 3.59 µM; in the assay with SNB-75 CNS, 2.66 µM; in the assay with BT-549 breast, 4.34 µM; in the assay on OVCAR-3 ovarian, 3.23 µM; with U251 CNS it was 2.21 µM. Moreover, the GI50 was 3.08 µM with DU-145 prostate, 2.38 µM in the assay with MDA-MB-231 breast, 2.03 µM in the assay on SK-OV-3 ovarian and greater than 100 µM in the assay on CAKI-1 renal. Besides, the TGI in the assay on KM12 colon turned out to be 8.39 µM; in the assay on T-47D breast it was 25.4 µM; in the assay on SNB-75 CNS, 10.2 µM; in the assay on BT-549 breast, 15.7 µM; with OVCAR-3 ovarian it was 9.92 µM; in the assay with U251 CNS it was 6.68 µM. For the same compound, the TGI is 10.3 µM with DU-145 prostate, 7.22 µM with MDA-MB-231 breast, 5.62 µM in the assay on SK-OV-3 ovarian and greater than 100 µM in the assay with CAKI-1 renal.

Take `C[CH2][Hg][S]c1ccccc1C(=O)O`: the GI50 was 3.82 µM with KM12 colon; 0.522 µM in the assay with T-47D breast; 2.98 µM in the assay on SNB-75 CNS; 1.43 µM in the assay on BT-549 breast; 0.871 µM in the assay with OVCAR-3 ovarian; 1.56 µM in the assay with U251 CNS. The GI50 in the assay on DU-145 prostate was 1.83 µM; with MDA-MB-231 breast, 1.26 µM; in the assay on SK-OV-3 ovarian, 2.77 µM; in the assay on CAKI-1 renal it was 0.316 µM. In addition, the TGI was 13.3 µM in the assay with KM12 colon; 2.79 µM in the assay on T-47D breast; 10.8 µM in the assay on SNB-75 CNS; 2.76 µM in the assay with BT-549 breast; 2.09 µM in the assay on OVCAR-3 ovarian; 3.03 µM in the assay on U251 CNS. Moreover, the TGI in the assay with DU-145 prostate is 3.41 µM; in the assay with MDA-MB-231 breast, 2.58 µM; in the assay with SK-OV-3 ovarian, 8.21 µM; with CAKI-1 renal, 1.47 µM.

`Nc1nc(N)c(CCCCc2ccccc2)c(N)n1`: the TGI with KM12 colon, in the assay with T-47D breast, with SNB-75 CNS, with BT-549 breast, in the assay with OVCAR-3 ovarian and in the assay on U251 CNS was greater than 100 µM each time. For the same compound, the TGI in the assay on DU-145 prostate, with MDA-MB-231 breast, in the assay on SK-OV-3 ovarian and in the assay with CAKI-1 renal was greater than 100 µM in each case.

In the case of `COc1cc(C(=O)Nc2cc(O)c(CC=C(C)C)c(O)c2)cc2c1O[C@]1(C)CC[C@@H](O)C(C)(C)[C@H]1C2`, the GI50 in the assay with KM12 colon is 1.76 µM; in the assay with T-47D breast, 1.12 µM; in the assay with SNB-75 CNS, 0.33 µM; with BT-549 breast, 0.153 µM; in the assay with OVCAR-3 ovarian it was 3.83 µM; in the assay with U251 CNS, 0.0399 µM. In addition, the GI50 in the assay with DU-145 prostate was 1.87 µM; in the assay on MDA-MB-231 breast it was 1.16 µM; with SK-OV-3 ovarian it was 0.729 µM; in the assay on CAKI-1 renal, 0.491 µM. The TGI came to 12.9 µM in the assay on KM12 colon; 14.3 µM in the assay on T-47D breast; 17 µM in the assay with SNB-75 CNS; 12.8 µM with BT-549 breast; 62 µM in the assay with OVCAR-3 ovarian; 17.4 µM in the assay with U251 CNS. Further, the TGI in the assay on DU-145 prostate amounted to 21.7 µM; with MDA-MB-231 breast, 4.53 µM; in the assay with SK-OV-3 ovarian, 17.3 µM; in the assay with CAKI-1 renal, 63.1 µM.

On to `O=C1c2c(Br)sc(Br)c2[C@@H](NC(=O)C(F)(F)F)C1Br` (stereo not given in full), for which the TGI in the assay on KM12 colon was found to be 17.7 µM; in the assay on T-47D breast it was 14.7 µM; in the assay on SNB-75 CNS it was 16.1 µM; in the assay on BT-549 breast, 10.1 µM; in the assay with OVCAR-3 ovarian, 9.99 µM; with U251 CNS it was 9.08 µM. Moreover, the TGI in the assay on DU-145 prostate was determined as 18.3 µM; in the assay on MDA-MB-231 breast it was 6.06 µM; in the assay with SK-OV-3 ovarian it was 32.8 µM; in the assay with CAKI-1 renal it was 8.82 µM.

Regarding `COc1cccc(Oc2ccccc2NC(=O)CNC(=O)c2cccc3ccccc23)c1`, the GI50 is 0.19 µM with KM12 colon; 0.138 µM in the assay with T-47D breast; 0.128 µM in the assay on SNB-75 CNS; 0.298 µM in the assay with BT-549 breast; 0.0999 µM in the assay on OVCAR-3 ovarian; 0.242 µM in the assay on U251 CNS. For the same compound, the GI50 was 0.703 µM in the assay on DU-145 prostate, 0.776 µM in the assay on MDA-MB-231 breast, 0.494 µM in the assay with SK-OV-3 ovarian and 0.917 µM with CAKI-1 renal. For the same compound, the TGI with KM12 colon was 19.6 µM; with T-47D breast, 17.6 µM; in the assay on SNB-75 CNS, greater than 25 µM; in the assay with BT-549 breast, 10.2 µM; in the assay on OVCAR-3 ovarian it was 1.25 µM; in the assay on U251 CNS, greater than 25 µM. In addition, the TGI was greater than 25 µM in the assay on DU-145 prostate, 7.68 µM in the assay on MDA-MB-231 breast, 12.3 µM in the assay with SK-OV-3 ovarian and greater than 25 µM with CAKI-1 renal.

Take `Oc1cc(-n2cccn2)c(O)cc1-n1cccn1`: the TGI is greater than 86.5 µM with KM12 colon; 56.3 µM in the assay with T-47D breast; greater than 97.3 µM with SNB-75 CNS; 35.7 µM with BT-549 breast; 40 µM in the assay on OVCAR-3 ovarian; greater than 78.2 µM in the assay on U251 CNS. For the same compound, the TGI in the assay with DU-145 prostate is greater than 69.5 µM; in the assay with MDA-MB-231 breast, 50.5 µM; in the assay on SK-OV-3 ovarian it was greater than 100 µM; in the assay with CAKI-1 renal, 53.8 µM.

Source of the values: PubChem BioAssay (NCI).
